{"source": "patent US20140314746A1", "about": "“METHODS FOR TREATING OR PREVENTING FIBROSIS IN SUBJECTS AFFLICTED WITH SCLERODERMA” (Philadelphia Health and Education Corporation, d/b/a Drexel …, priority 2013, published 2014)", "key": {"SSc fibroblasts": {"tested_on": "SSc fibroblasts", "experiment": "Hydroxyproline secretion by SSc fibroblasts treated with glyburide or parthenolide", "settings": "100 μM glyburide or 10 μM parthenolide; media of 24 h and further 24 h", "quoted_text": "SSc fibroblasts were cultured in 5 ml of media with 100 μM glyburide (G) or 10 μM parthenolide (P). After 24 h the media was collected and the fibroblasts given an additional 5 ml of media with 100 μM glyburide or 10 μM parthenolide and cultured for a further 24 h. Media from both time points was assayed for hydroxyproline. Three independent experiments were performed in and assayed in triplicate. Data is presented as means±SEM. G=glyburide, P=parthenolide.\nSSc fibroblasts were treated for 24 h with 100 μM Glyburide or 10 μM Parthenolide. The media was replaced with fresh after 24 h with 100 μM Glyburide or 10 μM Parthenolide and cultured for an additional 24 h. The culture media was assayed for hydroxyproline."}, "interleukin-1β": {"tested_on": "interleukin-1β", "settings": "cited from earlier work"}, "SSc lung fibroblasts [1]": {"tested_on": "SSc lung fibroblasts", "experiment": "IL-18 secretion by SSc lung fibroblasts (ELISA of media)", "assay_type": "cell-based, human", "settings": "SSc lung fibroblasts (n=3), 20 μM inhibitor, 48 h; untreated 743.9±6.4", "experimental": "(§1) Normal human dermal fibroblasts (n=4) were purchased from the Coriell Institute (Camden, N.J.) and normal lung fibroblasts (n=3) were obtained from the University of Pittsburgh. Normal and SSc dermal fibroblasts (750,000 cells/dish) were cultured in DMEM (Mediatech Inc., Manassas Va.) supplemented with 10% FBS (Mediatech) and 1% penicillin/streptomycin (Mediatech). Protein lysates were collected for western blotting and media was collected for ELISA and hydroxyproline assays. SSc fibroblasts were treated with 20 μM caspase-1 inhibitor, Benzyloxycarbonyl-Tyr-Val-Ala-Asp(OMe)-fluoromethylketone (Z-YVAD(OMe)-FMK; Enzo Life Sciences, Plymouth Meeting Pa.) for 48 h. Fibroblasts from NLRP3−/−, and ASC−/− and C57BL/6 mice (Jackson Laboratories, Bar Harbor Me.) were established from skin and were treated with 1 μM bleomycin and 20 μM Z-YVAD(OMe)-FMK for 48 h.\n(§2) Media from SSc and normal fibroblasts were assayed by ELISA for IL-1β (Thermo Scientific, Rockford Ill.) and IL-18 (MBL, Woburn Mass.) according to the manufacturer's recommendations. […] The sensitivity of the IL-1β ELISA was 2.6 pg/ml and the sensitivity of the IL-18 was 12 pg/ml."}, "SSc lung fibroblasts [2]": {"tested_on": "SSc lung fibroblasts", "experiment": "Hydroxyproline (total collagen) secretion by SSc lung fibroblasts", "assay_type": "cell-based, human", "settings": "20 μM inhibitor, 48 h, untreated 216.1±18.5", "experimental": "as §1\n(§3) Total collagen secreted into media was measured by hydroxyproline (Woessner, 1961, Arch Biochem Biophys 93:440-7). Absorbances were read in a spectrophotometer at 550 nm and the concentration of hydroxyproline was determined against a standard curve of hydroxyproline."}, "SSc dermal fibroblasts [3]": {"tested_on": "SSc dermal fibroblasts", "experiment": "IL-1β secretion by SSc dermal fibroblasts (ELISA of media)", "assay_type": "cell-based, human", "settings": "SSc dermal fibroblasts (n=4), 20 μM inhibitor, 48 h, untreated 41.1±5.6", "experimental": "as §1, §2\n(§4) 80% confluent fibroblasts were cultured in serum free Opti-MEM and transfected with siRNA targeting caspase-1 (Santa Cruz) for 48 h, with an additional transfection of the siRNA duplex after 24 h. […]"}, "SSc dermal fibroblasts [4]": {"tested_on": "SSc dermal fibroblasts", "experiment": "Hydroxyproline (total collagen) secretion by SSc dermal fibroblasts", "assay_type": "cell-based, human", "settings": "20 μM inhibitor, 48 h, untreated 18.73±2.33", "experimental": "as §1, §3, §4"}, "SSc lung fibroblasts [5]": {"tested_on": "SSc lung fibroblasts", "experiment": "IL-1β secretion by SSc lung fibroblasts (ELISA of media)", "assay_type": "cell-based, human", "settings": "SSc lung fibroblasts (n=3), 20 μM inhibitor, 48 h; untreated 19.7±0.4", "experimental": "as §1, §2"}, "SSc dermal fibroblasts [6]": {"tested_on": "SSc dermal fibroblasts", "experiment": "Western blot of secreted COL1A1 and COL3A1, SSc dermal fibroblasts", "assay_type": "cell-based, human", "settings": "48 h", "experimental": "as §1\n(§5) 30 μl of media was size fractionated on a 5% SDS polyacrylamide gel (Invitrogen, Carlsbad Calif.) and the proteins transferred to a PVDF membrane (Invitrogen). Non-specific binding sites were blocked and then probed with rabbit-anti-human COL1A1, COL3A1, or α-SMA (Santa Cruz Biotechnologies, Santa Cruz Calif.) overnight at 4° C. The membrane was washed and incubated with goat anti-rabbit-HRP (1:5000) (Jackson Immunoresearch, West Grove Pa.). […] The intensity of the bands was measured by ImageJ (http://rsbweb dot nih dot gov/ij/)."}, "fibroblasts": {"tested_on": "fibroblasts", "assay_type": "cell-based", "experimental": "as §1"}, "[7]": {"tested_on": "SSc dermal myofibroblasts", "experiment": "Immunofluorescence of α-SMA and f-actin in SSc dermal myofibroblasts", "assay_type": "cell-based, human", "settings": "48 h", "experimental": "SSc dermal fibroblasts were cultured in chamber slides to 80% confluency and treated with Z-YVAD(OMe)-FMK for 48 h, air dried then fixed with 4% paraformaldehyde for 20 min. Slides were washed with 1×PBS and blocked with 5% goat serum. Primary antibody to α-SMA (1:100, Clone #1A4, Abcam, Cambridge Mass.) and applied to the cells for 40 min, then washed in PBS. Cy2-conjugated goat-anti-mouse (1:200, Jackson ImmunoResearch, West Grove Pa.) was applied to the cells for 40 min, and then washed. Rhodamine phalloidin (1:100, Cytoskeleton, Denver Colo.) was applied to the cells for 15 min, then the cells were washed with PBS, counterstained with DaPI (Invitrogen), visualized with a Nikon Eclipse 80i epi-fluorescent microscope, and photographed at 400× magnification. All images (red for f-actin, green for α-SMA, and triple for simultaneous detection of f-actin, α-SMA and nuclei) were captured at 6 sec, Gain=2, Gamma=0.5."}, "SSc dermal fibroblasts [8]": {"tested_on": "SSc dermal fibroblasts", "experiment": "Western blot of α-SMA in SSc dermal fibroblasts", "assay_type": "cell-based, human", "settings": "48 h", "experimental": "30 μl of media was size fractionated on a 5% SDS polyacrylamide gel (Invitrogen, Carlsbad Calif.) and the proteins transferred to a PVDF membrane (Invitrogen). Non-specific binding sites were blocked and then probed with rabbit-anti-human COL1A1, COL3A1, or α-SMA (Santa Cruz Biotechnologies, Santa Cruz Calif.) overnight at 4° C. The membrane was washed and incubated with goat anti-rabbit-HRP (1:5000) (Jackson Immunoresearch, West Grove Pa.). The HRP signal was developed with SuperSignal Chemiluminescent Substrate (Pierce). The intensity of the bands was measured by ImageJ (http://rsbweb dot nih dot gov/ij/).\n80% confluent fibroblasts were cultured in serum free Opti-MEM and transfected with siRNA targeting caspase-1 (Santa Cruz) for 48 h, with an additional transfection of the siRNA duplex after 24 h. Cells were harvested for protein for Western blotting and the media was saved for hydroxyproline and IL-1β and IL-18 measurements and cells were lysed for α-SMA detection."}, "SSc lung fibroblasts [9]": {"tested_on": "SSc lung fibroblasts", "experiment": "Western blot of secreted COL1A1 and COL3A1, SSc lung fibroblasts", "assay_type": "cell-based, human", "settings": "48 h", "experimental": "as §1, §5"}, "SSc dermal fibroblasts [10]": {"tested_on": "SSc dermal fibroblasts", "experiment": "IL-18 secretion by SSc dermal fibroblasts (ELISA of media)", "assay_type": "cell-based, human", "settings": "SSc dermal fibroblasts (n=4), 20 μM inhibitor, 48 h; untreated 23.9±1.0", "experimental": "as §1, §2, §4"}, "mouse dermal fibroblasts": {"tested_on": "mouse dermal fibroblasts", "experiment": "Hydroxyproline secretion by mouse dermal fibroblasts stimulated with bleomycin", "assay_type": "cell-based", "settings": "for hydroxyproline secreted: 48 h", "experimental": "as §1, §3"}, "[11]": {"tested_on": "other members of the interleukin-1 family, including interleukin-1 alpha", "settings": "cited from earlier work"}, "[12]": {"tested_on": "mouse models of acute gout", "settings": "in vivo; cited from earlier work"}, "[13]": {"tested_on": "C57Bl/6, NLRP3−/− and ASC−/− mice", "experiment": "Murine bleomycin-induced model of fibrosis (skin thickness, lung pathology)", "assay_type": "in vivo, mouse", "experimental": "All animals were housed in the University Laboratory Animal facility and fed ad libitum. Pathogen free C57Bl/6 mice (n=7) were purchased from Jackson Laboratories. […] Seven untreated C57BL/6 mice were assessed for skin thickness and lung pathology. Dermal fibrosis was induced by daily subcutaneous administration of 100 μl of a 1 mg/ml of bleomycin (BioMol, Plymouth Meeting Pa.) in the flank for 28 days. At the same time 100 μl sterile PBS was administered by subcutaneous injection in the contralateral flank of the same mouse according to the method of Yamamoto et al. (Yamamoto et al., 1999, J Invest Dermatol 112:456-62). Mice were euthanized and tissue from both injection sites was harvested, along with lung tissue. Tissues were fixed, embedded in paraffin, and sectioned onto positively charged slides, then stained with Masson's Trichrome and photographed. Collagen was measured in the skin from just below the epidermis to the fat layer. Two images were taken at 100× magnification. Six measurements were taken for each image using the Advanced SpotCam software and expressed as skin thickness in microns±SEM and fold change in skin thickness."}}, "data": [{"compound": "COc1ccc(Cl)cc1C(=O)NCCc1ccc(S(=O)(=O)NC(=O)NC2CCCCC2)cc1", "note": "[Glyburide, 5-chloro-N-(4-[N-(cyclohexylcarbamoyl)sulfamoyl]phenethyl)-2-methoxybenzamide]", "values": [{"measurement": "hydroxyproline secretion by SSc fibroblasts", "setting": "SSc fibroblasts", "result": "significantly reduce"}]}, {"compound": "CSc1ccc(-c2nn(Cc3ccccc3)c(=O)cc2-c2ccc(Cl)cc2)cc1", "note": "[K-832, 2-benzyl-5-(4-chlorophenyl)-6-[4-(methylthio)phenyl]-2H-pyridazin-3-one]", "values": [{"measurement": "inhibitory activity against production of interleukin-1β", "setting": "interleukin-1β", "result": "high inhibitory activity"}]}, {"compound": "COC(=O)C[C@H](NC(=O)[C@H](C)NC(=O)[C@@H](NC(=O)[C@H](Cc1ccc(O)cc1)NC(=O)OCc1ccccc1)C(C)C)C(=O)CF", "note": "[Z-YVAD(OMe)-FMK, Benzyloxycarbonyl-Tyr-Val-Ala-Asp(OMe)-fluoromethylketone]", "values": [{"measurement": "IL-18 secreted", "setting": "SSc lung fibroblasts [1]", "result": "311.6 ± 18.5", "unit": "pg/mL"}, {"measurement": "hydroxyproline secreted", "setting": "SSc lung fibroblasts [2]", "result": "132.0 ± 22.8", "unit": "µg/mL"}, {"measurement": "IL-1β secreted", "setting": "SSc dermal fibroblasts [3]", "result": "12.0 ± 1.6", "unit": "pg/mL"}, {"measurement": "IL-1β secreted", "setting": "SSc dermal fibroblasts [3]; listed as YVAD", "result": 12.0, "unit": "pg/mL"}, {"measurement": "hydroxyproline secreted", "setting": "SSc dermal fibroblasts [4]", "result": "5.19 ± 0.94", "unit": "µg/mL"}, {"measurement": "IL-1β secreted", "setting": "SSc lung fibroblasts [5]", "result": "7.2 ± 0.2", "unit": "pg/mL"}, {"measurement": "Secreted COL1A1 protein (densitometry)", "setting": "SSc dermal fibroblasts [6]; untreated 11.4±1.3 AU", "result": "8.9±1.0", "unit": "AU"}, {"measurement": "COL3A1 protein (densitometry)", "setting": "SSc dermal fibroblasts [6]; untreated 14.7±3.1 AU", "result": "8.6±2.5", "unit": "AU"}, {"measurement": "apoptosis", "setting": "fibroblasts", "result": "did not interfere with cell proliferation or induce apoptosis"}, {"measurement": "F-actin MFI", "setting": "[7]; SSc dermal cells, untreated 37.8±3.09", "result": "39.6±2.9", "unit": "MFI"}, {"measurement": "F-actin staining", "setting": "[7]; SSc dermal myofibroblasts", "result": "unaffected"}, {"measurement": "Mean fluorescent intensity (MFI) of α-SMA after correction for f-actin MFI", "setting": "[7]; SSc dermal myofibroblasts, untreated 1.03±0.05", "result": "0.68±0.04"}, {"measurement": "Mean fluorescent intensity of α-SMA", "setting": "[7]; SSc dermal myofibroblasts, untreated 38.9±2.4", "result": "27.6±2.5"}, {"measurement": "Decrease of α-smooth muscle actin by Western", "setting": "SSc dermal fibroblasts [8]; after normalization for β-actin", "result": "approximately 50%"}, {"measurement": "α-SMA protein by Western, normalized for β-actin loading", "setting": "SSc dermal fibroblasts [8]; untreated 1.07±0.15", "result": "0.54±0.14"}, {"measurement": "COL1A1 secretion", "setting": "SSc lung fibroblasts [9]; p=0.051", "result": "trend for the reduction"}, {"measurement": "COL3A1 protein (densitometry)", "setting": "SSc lung fibroblasts [9]; untreated 12.3±3.8 AU", "result": "5.5±1.2", "unit": "AU"}, {"measurement": "IL-18 secreted", "setting": "SSc dermal fibroblasts [10]", "result": "15.2 ± 1.5", "unit": "pg/mL"}, {"measurement": "hydroxyproline secreted", "setting": "mouse dermal fibroblasts; C57BL/6 fibroblasts, 1 μM bleomycin plus 20 μM inhibitor", "result": "5.9 ± 0.7", "unit": "µg/mL"}]}, {"compound": "Canakinumab: a human monoclonal antibody targeted at interleukin-1 beta", "values": [{"measurement": "cross-reactivity with other members of the interleukin-1 family", "setting": "[11]", "result": "no cross-reactivity"}]}, {"compound": "XOMA-052: a potent anti-IL-1β humanized neutralizing antibody", "values": [{"measurement": "activity in mouse models of acute gout", "setting": "[12]", "result": "active"}]}, {"compound": "bleomycin", "values": [{"measurement": "fold induction of skin thickness", "setting": "[13]; ASC−/− mice, bleomycin vs PBS injected skin", "result": 1.06, "unit": "fold"}, {"measurement": "average skin thickness", "setting": "[13]; C57Bl/6 mice, bleomycin 100 μg daily s.c. 28 days, PBS injected skin 320.7±40.6", "result": "504.4±66.7", "unit": "microns"}, {"measurement": "fold increase in skin thickness", "setting": "[13]; C57Bl/6 mice, bleomycin vs PBS injected skin", "result": "1.54±0.11", "unit": "fold"}, {"measurement": "fold induction of skin thickness", "setting": "[13]; NLRP3−/− mice, bleomycin vs PBS injected skin", "result": 1.10, "unit": "fold"}, {"measurement": "lung pathology", "setting": "[13]; wild-type C57Bl/6 mice, bleomycin s.c. 28 days", "result": "developed extensive pulmonary fibrosis"}, {"measurement": "hydroxyproline secretion", "setting": "mouse dermal fibroblasts; ASC−/− and NLRP3−/− fibroblasts, 1 μM bleomycin, p>0.43", "result": "not induced"}, {"measurement": "hydroxyproline secreted", "setting": "mouse dermal fibroblasts; C57BL/6 fibroblasts stimulated with 1 μM bleomycin, unstimulated 10.6±3.8", "result": "42.8 ± 2.9", "unit": "µg/mL"}]}]}
